The experiment concerns BDF1 mice, P288 methotrexate-resistant leukemia, survival T/C. The experiment is described as follows: NCI In Vivo Anticancer Drug Screen. Data for tumor model P288 Lymphocytic Leukemia resistant to methotrexate; NSC 740 (intraperitoneal) in B6D2F1 (BDF1) mice. Conditions: endpoint: median survival time, higher = longer survival. Here is the method: The antitumor activity of compounds was measured in mice bearing transplantable tumors. Survival or tumor size were measured and the results are expressed as the measurement made in the treated group (T) divided by the measurement made in the vehicle treated control group (C). The tumor model used in this assay is P288 Lymphocytic Leukemia resistant to methotrexate; NSC 740 (intraperitoneal) in B6D2F1 (BDF1) mice

The mark [1] stands for this setting: dose: 1.0 mg/kg/injection, schedule: Q01DX010 (ip), vehicle: saline.
Setting [2] is: dose: 2.0 mg/kg/injection, schedule: Q01DX010 (ip), vehicle: saline.
[3] abbreviates: dose: 150.0 mg/kg/injection, schedule: Q01DX010 (ip), vehicle: saline.
[4] abbreviates: dose: 4.0 mg/kg/injection, schedule: Q01DX010 (ip), vehicle: saline.
The mark [5] stands for this setting: dose: 8.0 mg/kg/injection, schedule: Q01DX010 (ip), vehicle: saline.
Where [6] appears, read: dose: 6.25 mg/kg/injection, schedule: Q01DX010 (ip), vehicle: saline.
Setting [7] is: dose: 12.5 mg/kg/injection, schedule: Q01DX010 (ip), vehicle: saline.
Setting [8] is: dose: 16.0 mg/kg/injection, schedule: Q01DX010 (ip), vehicle: saline.
[9] abbreviates: dose: 25.0 mg/kg/injection, schedule: Q01DX010 (ip), vehicle: saline.
Where [10] appears, read: dose: 50.0 mg/kg/injection, schedule: Q01DX010 (ip), vehicle: saline.
Setting [11] is: dose: 3.13 mg/kg/injection, schedule: Q01DX010 (ip), vehicle: saline.
Where [12] appears, read: dose: 10.0 mg/kg/injection, schedule: Q01DX010 (ip), vehicle: saline.
The mark [13] stands for this setting: dose: 20.0 mg/kg/injection, schedule: Q01DX010 (ip), vehicle: saline.
Setting [14] is: dose: 100.0 mg/kg/injection, schedule: Q01DX010 (ip), vehicle: saline.
[15] abbreviates: dose: 200.0 mg/kg/injection, schedule: Q01DX010 (ip), vehicle: saline.

Among the data in PubChem BioAssay AID204 (DTP/NCI, 2004) are T/C values, retold here.

Values joined by “and” are separate entries in the source; they are usually repeats but may differ in a detail not shown here. Equal entries are not always repeated. Toxic doses and inconclusive results are not listed.

As for `c1ccc(CCSc2ncnc3nc[nH]c23)cc1`, the T/C is 86 % of control (dose: 15.6 mg/kg/injection, schedule: Q01DX010 (ip), vehicle: saline); 86 % of control (dose: 31.3 mg/kg/injection, schedule: Q01DX010 (ip), vehicle: saline); 100 % of control (dose: 62.5 mg/kg/injection, schedule: Q01DX010 (ip), vehicle: saline); 87 % of control (dose: 500.0 mg/kg/injection, schedule: Q01DX010 (ip), vehicle: saline).

For the compound `Nc1ncnc2c1ccn2C1OC(CO)C(O)C1O` (centres undefined), the T/C was 100 % of control (dose: 0.25 mg/kg/injection, schedule: Q01DX010 (ip), vehicle: saline); 100 % of control (dose: 0.5 mg/kg/injection, schedule: Q01DX010 (ip), vehicle: saline); 118 % of control under setting [1]; 100 % of control under setting [2].

As for `CS(=O)(=O)OCCCl`, the T/C is 94 % of control (dose: 18.8 mg/kg/injection, schedule: Q01DX010 (ip), vehicle: saline); 90 % of control and 110 % of control (dose: 75.0 mg/kg/injection, schedule: Q01DX010 (ip), vehicle: saline); 118 % of control and 121 % of control under setting [3].

`CC(=O)O[C@]1(C(C)=O)CC[C@H]2[C@@H]3C[C@H](C)C4=CC(=O)C=C[C@]4(C)[C@@]3(F)[C@@H](O)C[C@@]21C`: the T/C by setting is: (dose: 12.5 mg/kg/injection, schedule: Q01DX010 (sc), vehicle: steriod suspending solution) 100 % of control; (dose: 25.0 mg/kg/injection, schedule: Q01DX010 (sc), vehicle: steriod suspending solution) 110 % of control; (dose: 50.0 mg/kg/injection, schedule: Q01DX010 (sc), vehicle: steriod suspending solution) 105 % of control; (dose: 100.0 mg/kg/injection, schedule: Q01DX010 (sc), vehicle: steriod suspending solution) 100 % of control.

As for `C[C@H](N)C(=O)N[C@@H]1[C@H]2C(=C(O)C[C@@H](O)[C@@H]2O)C(=O)O[C@@H]1C`, the T/C reads like this: under setting [3], 112 % of control; (dose: 600.0 mg/kg/injection, schedule: Q01DX010 (ip), vehicle: saline) 150 % of control; (dose: 1200.0 mg/kg/injection, schedule: Q01DX010 (ip), vehicle: saline) 183 % of control.

Turning to `CCN(CC)c1ccc2cc3ccc(=[N+](CC)CC)cc-3oc2c1`, the T/C reads like this: under setting [1], 90 % of control; under setting [2], 104 % of control; under setting [4], 100 % of control; under setting [5], 90 % of control.

Consider `O=NN(CCCl)C(=O)NCCCl`, for which the T/C by setting is: under setting [6], 280 % of control and 300 % of control; under setting [7], 180 % of control.

Take `Nc1ncnc2[nH]ncc12`: the T/C (dose: 1.5 mg/kg/injection, schedule: Q01DX010 (ip), vehicle: saline) was 100 % of control; the T/C (dose: 3.0 mg/kg/injection, schedule: Q01DX010 (ip), vehicle: saline) is 95 % of control and 100 % of control; the T/C (dose: 6.0 mg/kg/injection, schedule: Q01DX010 (ip), vehicle: saline) was 100 % of control and 105 % of control; the T/C (dose: 12.0 mg/kg/injection, schedule: Q01DX010 (ip), vehicle: saline) is 90 % of control and 110 % of control.

`c1ccc(CNc2ncnc3[nH]ncc23)cc1`: the T/C runs as follows: under setting [5], 90 % of control and 115 % of control; under setting [8], 100 % of control and 110 % of control; (dose: 32.0 mg/kg/injection, schedule: Q01DX010 (ip), vehicle: saline) 100 % of control and 110 % of control; (dose: 64.0 mg/kg/injection, schedule: Q01DX010 (ip), vehicle: saline) 110 % of control.

As for `CS(=O)(=O)OCCCCOS(C)(=O)=O`, the T/C under setting [6] was 87 % of control, the T/C under setting [7] was 106 % of control, the T/C under setting [9] was 93 % of control and the T/C under setting [10] was 87 % of control.

In the case of `Nc1nc(=S)c2ncn(C3OC(CO)C(O)C3O)c2[nH]1` (centres undefined), the T/C under setting [2] was 90 % of control and 91 % of control and 115 % of control; the T/C under setting [4] was 91 % of control and 96 % of control and 120 % of control; the T/C under setting [5] is 93 % of control; the T/C under setting [8] was 90 % of control (2×) and 91 % of control.

On to `N#C[C@@H]1C2C=CC(CC2)[C@H]1C#N`, for which the T/C by setting is: (dose: 31.0 micrograms/kg/injection, schedule: Q01DX010 (ip), vehicle: saline) 90 % of control; (dose: 63.0 micrograms/kg/injection, schedule: Q01DX010 (ip), vehicle: saline) 118 % of control; (dose: 125.0 micrograms/kg/injection, schedule: Q01DX010 (ip), vehicle: saline) 109 % of control; (dose: 250.0 micrograms/kg/injection, schedule: Q01DX010 (ip), vehicle: saline) 90 % of control.

With `N=[N+]=CC(=O)OCC(N)C(=O)O` (centres undefined), the T/C under setting [11] was 110 % of control; the T/C under setting [6] is 112 % of control and 120 % of control; the T/C under setting [7] is 108 % of control and 120 % of control; the T/C under setting [9] is 120 % of control.

As to `NC(Cc1ccc(N(CCCl)CCCl)cc1)C(=O)O` (centres undefined), the T/C is 160 % of control (dose: 1.0 mg/kg/injection, schedule: Q01DX010 (ip), vehicle: other); 165 % of control (dose: 2.0 mg/kg/injection, schedule: Q01DX010 (ip), vehicle: other); 215 % of control (dose: 4.0 mg/kg/injection, schedule: Q01DX010 (ip), vehicle: other); 160 % of control (dose: 5.0 mg/kg/injection, schedule: Q01DX010 (ip), vehicle: saline); 186 % of control under setting [12]; 105 % of control under setting [13].

With `C=CC(CN1CC1)OC(C)=O` (centres undefined), the T/C is 90 % of control and 95 % of control under setting [2]; 100 % of control and 118 % of control under setting [4]; 95 % of control and 100 % of control under setting [8].

In the case of `CSc1ncnc2nc[nH]c12`, the T/C was 91 % of control and 100 % of control under setting [11]; 91 % of control and 96 % of control under setting [6]; 90 % of control under setting [10].

For `CC1CCOS(=O)O1` (centres undefined), the T/C reads like this: under setting [12], 91 % of control and 95 % of control; under setting [13], 90 % of control; (dose: 40.0 mg/kg/injection, schedule: Q01DX010 (ip), vehicle: saline) 95 % of control; (dose: 80.0 mg/kg/injection, schedule: Q01DX010 (ip), vehicle: saline) 90 % of control.

In the case of `O=C(O)CCCc1ccc(N(CCCl)CCCl)cc1`, the T/C under setting [11] was 90 % of control and 95 % of control; the T/C under setting [6] was 91 % of control and 100 % of control; the T/C under setting [7] was 115 % of control.

On to `CC(=O)Nc1ccc2nc3ccc(NC(C)=O)cc3[n+](-c3ccccc3)c2c1`, for which the T/C runs as follows: under setting [9], 122 % of control; under setting [10], 110 % of control; under setting [14], 106 % of control; under setting [15], 100 % of control and 113 % of control.

Consider `Clc1ccc(C(c2ccccc2Cl)C(Cl)Cl)cc1` (centres undefined), for which the T/C by setting is: (dose: 62.5 mg/kg/injection, schedule: Q01DX010 (sc), vehicle: steriod suspending solution) 109 % of control; (dose: 125.0 mg/kg/injection, schedule: Q01DX010 (sc), vehicle: steriod suspending solution) 100 % of control; (dose: 250.0 mg/kg/injection, schedule: Q01DX010 (sc), vehicle: steriod suspending solution) 109 % of control; (dose: 500.0 mg/kg/injection, schedule: Q01DX010 (sc), vehicle: steriod suspending solution) 100 % of control.

Turning to `O=C1C(NC(=O)C2CCCCC2)=C(N2CC2)C(=O)C(NC(=O)C2CCCCC2)=C1N1CC1`, the T/C was 90 % of control and 100 % of control under setting [9]; 90 % of control and 100 % of control under setting [10]; 90 % of control and 100 % of control under setting [14]; 100 % of control and 110 % of control under setting [15].

Take `CC(CCC(C)OS(C)(=O)=O)OS(C)(=O)=O` (centres undefined): the T/C runs as follows: under setting [4], 95 % of control; under setting [5], 87 % of control and 95 % of control; under setting [8], 95 % of control and 100 % of control.

As for `Nc1nc(=S)c2[nH]cnc2[nH]1`, the T/C is 88 % of control and 118 % of control (dose: 1.25 mg/kg/injection, schedule: Q01DX010 (ip), vehicle: other); 111 % of control and 112 % of control (dose: 2.5 mg/kg/injection, schedule: Q01DX010 (ip), vehicle: other); 111 % of control (dose: 5.0 mg/kg/injection, schedule: Q01DX010 (ip), vehicle: other).

For the compound `Clc1ncnc2nc[nH]c12`, the T/C reads like this: (dose: 7.5 mg/kg/injection, schedule: Q01DX010 (ip), vehicle: saline) 93 % of control; (dose: 15.0 mg/kg/injection, schedule: Q01DX010 (ip), vehicle: saline) 93 % of control; (dose: 30.0 mg/kg/injection, schedule: Q01DX010 (ip), vehicle: saline) 93 % of control; (dose: 60.0 mg/kg/injection, schedule: Q01DX010 (ip), vehicle: saline) 100 % of control.
